Patent US20080262049A1, “Therapeutic Agent for Hematopoietic Tumor” (KYOWA HAKKO KOGYO CO., LTD., priority 2005, published 2008)
Counter-ions that a name gives are not always drawn.

Legend:
[1] = biological target: T1, recombinant human Eg5 motor domain protein (Homo sapiens, UniProt P52732); test: Eg5 enzyme inhibition test (ATPase activity); format: biochemical; details: for inhibition of the ATPase activity of Eg5 (in words): 30° C., 30 minutes, absorbance at 360 nm; for Eg5 inhibitory activity compared with the corresponding racemic mixture (in words): versus Compounds 3, 4, 6, 7, 20, 14, 9, 8, the respectively corresponding racemic mixtures
T1 construct: A plasmid expressing the motor domain of human Eg5 was constructed; made in house; host or cells: Escherichia coli BL21 (DE3)
T1 sequence (P52732 18-359 limits assumed): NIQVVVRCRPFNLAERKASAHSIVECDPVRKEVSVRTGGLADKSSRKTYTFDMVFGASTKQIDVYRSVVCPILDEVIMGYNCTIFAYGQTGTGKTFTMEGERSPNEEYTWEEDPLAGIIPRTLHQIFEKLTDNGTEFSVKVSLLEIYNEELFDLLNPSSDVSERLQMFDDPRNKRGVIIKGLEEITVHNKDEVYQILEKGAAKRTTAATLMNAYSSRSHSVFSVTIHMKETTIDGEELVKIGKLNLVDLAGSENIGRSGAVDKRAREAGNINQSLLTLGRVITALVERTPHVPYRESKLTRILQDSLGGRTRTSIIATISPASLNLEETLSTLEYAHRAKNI
Experimental: A recombinant human Eg5 motor domain protein was prepared by referring to the literature [Biochemistry, Vol. 35, p. […] A plasmid expressing the motor domain of human Eg5 was constructed, and transformed into Eseherichia coli BL21 (DE3). The transformant was cultured at 25° C., and when the OD600 reached 0.74, isopropyl-β-D-thiogalactoside was added at a final concentration of 0.5 mmol/L. The transformant was further cultured for 4 hours, and then the culture medium was centrifuged to collect the cells. The cells were suspended in a buffer and ultrasonicated, and then the sonicated solution was centrifuged to recover the supernatant. The supernatant was purified by cation exchange column chromatography to obtain a partially purified sample. Furthermore, the partially purified sample was purified by gel filtration column chromatography to obtain a finally purified sample.
Measurement of the ATPase activity of Eg5 was carried out by referring to the literatures [EMBO Journal, Vol. 13, p. […] Solution A was dispensed into each well of a 96-well plate as 45 μL portions. Solution B was used to serially dilute a test compound. The diluted test compound solutions in a volume of 30 μL were mixed with Solution A added beforehand in each well of the 96-well plate to start the enzymatic reaction. The enzymatic reaction was performed at 30° C. for 30 minutes. […] The relative activity was calculated to calculate IC50 value.

[2] = tested on: human acute lymphoblastic leukemia RS4;11 cells; test: Cell growth inhibition test against hematopoietic tumor cell lines (XTT), RS4;11; format: cell-based; details: 72 hours culture with compound, read-out: growth inhibitory activity, GI50 value
From the text: (§1) As hematopoietic tumor cell lines, human acute lymphoblastic leukemia RS4;11 cells (ATCC No. CRL-1873), human chronic myeloid leukemia K-562 cells (ATCC No. CCL-243), and human multiple myeloma NCI-H929 cells (ATCC No. CRL-9068) were used. For the culture of the cells, RPMI 1640 Medium (Invitrogen, catalog No. 11875-093) containing 10% fetal bovine serum (Invitrogen, catalog No. 10099-141), 10 mmol/L 4-(2-hydroxyethyl)-1-piperazinethanesulfonic acid (HEPES) buffer (ICN Biomedicals, catalog No. 1688449), 1 mmol/L sodium pyruvate (Invitrogen, catalog No. 11360-070), 4.5 g/L glucose (Sigma-Aldrich, catalog No. G8769), 100 units/mL penicillin (Invitrogen, catalog No. 15140-122) and 100 μg/mL streptomycin (Invitrogen, catalog No. 15140-122) was used. The cells were cultured at 37° C. in a 5% carbon dioxide atmosphere.
(§2) RS4;11 cells (20000 cells/well), K-562 cells (1000 cells/well), or NCI-H929 cells (15000 cells/well) were seeded in each well of 96-well plates (Nunc, catalog No. 167008), and cultured overnight. Test compounds diluted stepwise were added, and the cells were further cultured for 72 hours (final volume: 100 μL/well). Fifty μL XTT labeling mixture of Cell Proliferation Kit II (XTT) (Roche Diagnostics, catalog No. 1465015) was added to each well, and the plates were incubated at 37° C. After 4 hours, absorbance at 490 nm (reference wavelength: 655 nm) was measured with a plate reader (Molecular Device, SpectraMax 340PC^384). Growth ratios of the cells in the wells treated with the test compound was calculated based on the growth ratio of the cells in the control well treated with solvent (dimethyl sulfoxide (DMSO)) for 72 hours, which was defined as 100%.

[3] = tested on: human chronic myeloid leukemia K-562 cells; test: Cell growth inhibition test against hematopoietic tumor cell lines (XTT), K-562; format: cell-based; details: K562, 72 hours culture with compound, read-out: growth inhibitory activity, GI50 value
From the text: as §1, §2

[4] = tested on: human multiple myeloma NCI-H929 cells; test: Cell growth inhibition test against hematopoietic tumor cell lines (XTT), NCI-H929; format: cell-based; details: 72 hours culture with compound, read-out: growth inhibitory activity, GI50 value
From the text: as §1, §2

[5] = tested on: human acute myeloid leukemia MV-4-11 cells; test: Cell growth inhibition test on acute myeloid leukemia cells (XTT), MV-4-11; format: cell-based; details: MV4-11, same manner as Test Example 1, read-out: growth inhibitory activity, GI50 value
Experimental: as §2
(§3) As cancer cell lines, human acute myeloid leukemia MV-4-11 cells (ATCC No. CRL-9591) and human non-Hodgkin's lymphoma SR cells (ATCC No. CRL-2262) were used. The cells were cultured at 37° C. in a 5% carbon dioxide atmosphere by using the mediums mentioned below, respectively.
(§4) In the same manner as that of Test Example 1, the cells were seeded (8000 to 16000 cells/well, respectively) in each well of 96-well plates (Nunc, catalog No. 167008), and growth ratios of the cells treated with test compounds were calculated. Measurement of absorbance was performed at 3 to 4 hours after the addition of the XTT labeling mixture.

[6] = tested on: human non-Hodgkin's lymphoma SR cells; test: Cell growth inhibition test on non-Hodgkin's lymphoma cells (XTT), SR; format: cell-based; details: same manner as Test Example 1, read-out: growth inhibitory activity, GI50 value
Experimental: as §2, §3, §4

SMILES | melting point | GI50 [2] | GI50 [3] | GI50 [4] | GI50 [5] | GI50 [6] | Eg5 inhibitory activity compared with the corresponding racemic mixture (in words) [1] | inhibition of the ATPase activity of Eg5 (in words) [1]
CC(C)(C)C(=O)NC1=NN(C(=O)C(C)(C)C)C(CN)(c2ccccc2)S1 (centres unmarked) (as salt: hydrochloride) [Compound j, N-[5-Aminomethyl-4-(2,2-dimethylpropionyl)-5-phenyl-4,5-dihydro-1,3,4-thiadiazol-2-yl]-2,2-dimethylpropanamide] | 175 to 182 °C | – | – | – | – | – | – | –
CCNCCS(=O)(=O)NCCC1(c2ccccc2)SC(NC(=O)C(C)(C)C)=NN1C(=O)C(C)(C)C (racemic) [Compound 14, N-{4-(2,2-Dimethylpropionyl)-5-[2-(2-ethylaminoethanesulfonylamino)-ethyl]-5-phenyl-4,5-dihydro-1,3,4-thiadiazol-2-yl}-2,2-dimethylpropanamide] | – | – | – | – | – | – | – | inhibited the ATPase activity of Eg5 in a concentration-dependent manner
CC(=O)N1N=C(N2CCCCC2=O)SC1(CCNS(C)(=O)=O)c1ccccc1 (racemic) [Compound 20, N-{2-[3-Acetyl-5-(2-oxopiperidino)-2-phenyl-2,3-dihydro-1,3,4-thiadiazol-2-yl]ethyl}methanesulfonamide] | – | – | – | – | – | – | – | inhibited the ATPase activity of Eg5 in a concentration-dependent manner
CCNCCS(=O)(=O)NCCC1(c2ccccc2)SC(NC(=O)C(C)(C)C)=NN1C(=O)C(C)(C)C (single isomer, unassigned) [Compound i, N-{4-(2,2-Dimethylpropionyl)-5-[2-(2-ethylaminoethanesulfonylamino)-ethyl]-5-phenyl-4,5-dihydro-1,3,4-thiadiazol-2-yl}-2,2-dimethylpropanamide] | – | < 10 µM | < 10 µM | < 10 µM | < 10 µM | < 10 µM | stronger inhibitory activities | inhibited the ATPase activity of Eg5 in a concentration-dependent manner
CC(C)(C)C(=O)NC1=NN(C(=O)C(C)(C)C)C(CCCC(=O)NCCO)(c2ccccc2)S1 (single isomer, unassigned) [Compound o, 4-[3-(2,2-Dimethylpropionyl)-5-(2,2-dimethylpropionylamino)-2-phenyl-2,3-dihydro-1,3,4-thiadiazol-2-yl]-N-(2-hydroxyethyl)butanamide] | – | < 10 µM | < 10 µM | < 10 µM | < 10 µM | < 10 µM | stronger inhibitory activities | inhibited the ATPase activity of Eg5 in a concentration-dependent manner
CC(C)(C)C(=O)N1N=C(N2CCCC2=O)SC1(CCNS(C)(=O)=O)c1ccccc1 (single isomer, unassigned; (-)) [Compound c, (−)-N-{2-[3-(2,2-Dimethylpropionyl)-5-(2-oxopyrrolidin-1-yl)-2-phenyl-2,3-dihydro-1,3,4-thiadiazol-2-yl]ethyl}methanesulfonamide] | 107 to 110 °C | – | – | – | – | – | – | –
CCNCCS(=O)(=O)NCC1(c2ccccc2)SC(NC(=O)C(C)(C)C)=NN1C(=O)C(C)(C)C (single isomer, unassigned; (-)) [Compound l, (−)-N-[4-(2,2-Dimethylpropionyl)-5-(2-ethylaminoethanesulfonylaminomethyl)-5-phenyl-4,5-dihydro-1,3,4-thiadiazol-2-yl]-2,2-dimethylpropanamide] | – | < 10 µM | < 10 µM | < 10 µM | < 10 µM | < 10 µM | stronger inhibitory activities | inhibited the ATPase activity of Eg5 in a concentration-dependent manner
CC(C)(C)C(=O)NC1=NN(C(=O)C(C)(C)C)C(CN)(c2ccccc2)S1 (centres unmarked) [Compound j, N-[5-Aminomethyl-4-(2,2-dimethylpropionyl)-5-phenyl-4,5-dihydro-1,3,4-thiadiazol-2-yl]-2,2-dimethylpropanamide] | – | < 10 µM | < 10 µM | < 10 µM | – | – | – | –

Continued, in another order:

melting point | GI50 [2] | GI50 [3] | GI50 [4] | GI50 [5] | GI50 [6] | Eg5 inhibitory activity compared with the corresponding racemic mixture (in words) [1] | SMILES | inhibition of the ATPase activity of Eg5 (in words) [1]
– | < 10 µM | < 10 µM | < 10 µM | < 10 µM | < 10 µM | stronger inhibitory activities | CC(C)(C)C(=O)NC1=NN(C(=O)C(C)(C)C)C(CCNS(C)(=O)=O)(c2ccccc2)S1 (single isomer, unassigned; (-)) [Compound a, (−)-N-[4-(2,2-Dimethylpropionyl)-5-(2-methanesulfonylaminoethyl)-5-phenyl-4,5-dihydro-1,3,4-thiadiazol-2-yl]-2,2-dimethylpropanamide] | inhibited the ATPase activity of Eg5 in a concentration-dependent manner
– | < 10 µM | < 10 µM | < 10 µM | < 10 µM | < 10 µM | stronger inhibitory activities | CCC(=O)N1N=C(NC(=O)C(C)(C)C)SC1(CCNS(C)(=O)=O)c1ccccc1 (single isomer, unassigned; (-)) [Compound b, (−)-N-[5-(2-Methanesulfonylaminoethyl)-5-phenyl-4-propionyl-4,5-dihydro-1,3,4-thiadiazol-2-yl]-2,2-dimethylpropanamide] | inhibited the ATPase activity of Eg5 in a concentration-dependent manner
– | < 10 µM | < 10 µM | < 10 µM | < 10 µM | < 10 µM | stronger inhibitory activities | CC(C)C(=O)N1N=C(NC(=O)C(C)(C)C)SC1(CCNS(C)(=O)=O)c1ccccc1 (single isomer, unassigned; (-)) [Compound d, (−)-N-[4-Isobutyryl-5-(2-methanesulfonylaminoethyl)-5-phenyl-4,5-dihydro-1,3,4-thiadiazol-2-yl]-2,2-dimethylpropanamide] | inhibited the ATPase activity of Eg5 in a concentration-dependent manner
187 to 190 °C | – | – | – | – | – | – | CC(=O)N1N=C(NC(=O)C(C)(C)C)SC1(CCNS(C)(=O)=O)c1ccccc1 (single isomer, unassigned; (-)) [Compound f, (−)-N-[4-Acetyl-5-(2-methanesulfonylaminoethyl)-5-phenyl-4,5-dihydro-1,3,4-thiadiazol-2-yl]-2,2-dimethylpropanamide] | –
